Active and inactive are the calls of the source. The calls are words filed in the database; no cut-off is given here.
Legend:
[1] = system: BaF3; assay: Induction of apoptosis in KIF5B-RET V804M mutant fusion protein expressing mouse BaF3 cells implanted in BALB/c mouse assessed as increase in cleaved caspase-3 level at 30 to 50 mg/kg, iv administered once daily for 7 days measured 4 hrs post last dose by H and E staining based immunohistochemical analysis; format: functional, organism-based; conditions: dose 30-50 mg/kg, time 7.0 day
[2] = system: BaF3; assay: Induction of apoptosis in KIF5B-RET fusion protein expressing mouse BaF3 cells implanted in BALB/c mouse assessed as increase in cleaved caspase-3 level at 30 to 50 mg/kg, iv administered once daily for 7 days measured 4 hrs post last dose by H and E staining based immunohistochemical analysis; format: functional, organism-based; conditions: dose 30-50 mg/kg, time 7.0 day
[3] = AUC (0 to t) in Sprague-Dawley rat at 1 mg/kg, iv; format: ADME, organism-based; design: dose 1 mg/kg; conditions: in vivo
[4] = system: BaF3; assay: Inhibition of CCDC6-RET V804M mutant fusion protein (unknown origin) expressed in mouse BaF3 cells assessed as reduction in RET phosphorylation at 10 to 500 nM measured after 4 hrs by Western blot analysis; format: cell-based; conditions: Homo sapiens, dose 10-500 nM
[5] = system: BaF3; assay: Inhibition of CCDC6-RET V804M mutant fusion protein (unknown origin) expressed in mouse BaF3 cells assessed as reduction in SHC phosphorylation at 10 to 500 nM measured after 4 hrs by Western blot analysis; format: cell-based; conditions: Homo sapiens, dose 10-500 nM
[6] = biological target: T1, Coiled-coil domain-containing protein 6/Tyrosine-protein kinase receptor RET (Homo sapiens) (UniProt P07949+Q16204); assay: Inhibition of CCDC6-RET fusion protein (unknown origin) expressed in mouse BaF3 cells assessed as reduction in ERK phosphorylation at 10 to 500 nM measured after 4 hrs by Western blot analysis; format: cell-based; conditions: dose 10-500 nM
T1 sequence (P07949 29-1114 limits assumed): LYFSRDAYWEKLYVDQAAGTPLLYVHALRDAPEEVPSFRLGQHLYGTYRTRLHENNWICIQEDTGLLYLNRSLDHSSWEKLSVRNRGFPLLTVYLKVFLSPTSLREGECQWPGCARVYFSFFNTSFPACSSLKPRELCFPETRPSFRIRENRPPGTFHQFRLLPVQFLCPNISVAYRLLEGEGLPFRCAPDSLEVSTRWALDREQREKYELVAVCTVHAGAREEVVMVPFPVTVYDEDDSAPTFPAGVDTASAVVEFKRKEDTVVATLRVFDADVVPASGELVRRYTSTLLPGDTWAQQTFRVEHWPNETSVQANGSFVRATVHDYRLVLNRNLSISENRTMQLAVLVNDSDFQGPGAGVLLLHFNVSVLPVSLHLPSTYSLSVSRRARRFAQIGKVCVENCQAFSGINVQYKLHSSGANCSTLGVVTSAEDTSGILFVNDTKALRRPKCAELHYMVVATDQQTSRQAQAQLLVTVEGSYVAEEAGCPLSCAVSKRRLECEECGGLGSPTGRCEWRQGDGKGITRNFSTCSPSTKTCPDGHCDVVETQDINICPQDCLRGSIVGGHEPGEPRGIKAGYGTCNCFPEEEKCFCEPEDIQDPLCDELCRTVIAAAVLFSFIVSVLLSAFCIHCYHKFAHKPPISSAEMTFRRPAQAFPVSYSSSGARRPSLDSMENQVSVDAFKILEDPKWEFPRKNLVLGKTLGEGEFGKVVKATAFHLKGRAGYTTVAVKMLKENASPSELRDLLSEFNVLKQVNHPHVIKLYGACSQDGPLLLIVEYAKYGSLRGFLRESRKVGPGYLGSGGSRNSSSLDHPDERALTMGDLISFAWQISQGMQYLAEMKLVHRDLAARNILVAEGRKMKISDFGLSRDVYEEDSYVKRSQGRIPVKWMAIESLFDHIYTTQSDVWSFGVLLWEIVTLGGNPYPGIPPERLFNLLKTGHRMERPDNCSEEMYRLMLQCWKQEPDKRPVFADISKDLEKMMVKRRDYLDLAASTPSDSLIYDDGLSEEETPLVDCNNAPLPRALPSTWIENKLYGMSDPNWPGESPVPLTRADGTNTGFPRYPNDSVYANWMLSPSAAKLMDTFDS
T1 sequence (Q16204 2-474 partner limits assumed): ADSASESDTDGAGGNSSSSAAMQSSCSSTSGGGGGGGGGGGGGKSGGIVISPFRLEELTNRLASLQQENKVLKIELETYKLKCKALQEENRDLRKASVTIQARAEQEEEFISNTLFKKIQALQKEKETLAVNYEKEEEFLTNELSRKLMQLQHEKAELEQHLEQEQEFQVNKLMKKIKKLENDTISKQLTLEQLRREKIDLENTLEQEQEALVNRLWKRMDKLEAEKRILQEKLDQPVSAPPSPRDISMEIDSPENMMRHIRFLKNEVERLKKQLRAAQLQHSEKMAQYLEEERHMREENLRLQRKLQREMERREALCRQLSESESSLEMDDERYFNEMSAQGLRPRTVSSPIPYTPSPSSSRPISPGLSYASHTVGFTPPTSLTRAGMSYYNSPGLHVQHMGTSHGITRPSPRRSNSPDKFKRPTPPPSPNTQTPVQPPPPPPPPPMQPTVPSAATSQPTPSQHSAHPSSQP

[7] = system: BaF3; assay: Antitumor activity against KIF5B-RET V804M mutant fusion protein expressing mouse BaF3 cells implanted in iv dosed BALB/c mouse assessed as tumor growth inhibition administered once daily for 7 days; format: functional, organism-based; conditions: dose 30-50 mg/kg, time 7.0 day
[8] = system: A549; assay: Antiproliferative activity against human A549 cells measured after 48 hrs by MTS assay; format: functional
[9] = system: Kinesin-1 heavy chain/ Tyrosine-protein kinase receptor RET (Homo sapiens), P07949+P33176 [V804M]; assay: Inhibition of KIF5B-RET V804M mutant fusion protein (unknown origin) expressed in mouse BaF3 cells assessed as reduction in RET autophosphorylation at 100 nM measured after 4 hrs by Western blot analysis; format: cell-based
[10] = Cmax in Sprague-Dawley rat at 10 mg/kg, po; format: ADME, organism-based; design: route oral, dose 10 mg/kg; conditions: in vivo
[11] = Tmax in Sprague-Dawley rat at 10 mg/kg, po; format: ADME, organism-based; conditions: in vivo
[12] = AUC (0 to t) in Sprague-Dawley rat at 10 mg/kg, po; format: ADME, organism-based; design: dose 10 mg/kg; conditions: in vivo
[13] = biological target: T2, Proto-oncogene tyrosine-protein kinase receptor Ret (Homo sapiens, UniProt P07949); assay: Inhibition of RET phosphorylation in human LC-2-ad cells; format: cell-based
T2 sequence (P07949 whole entry, the tested form may be a part): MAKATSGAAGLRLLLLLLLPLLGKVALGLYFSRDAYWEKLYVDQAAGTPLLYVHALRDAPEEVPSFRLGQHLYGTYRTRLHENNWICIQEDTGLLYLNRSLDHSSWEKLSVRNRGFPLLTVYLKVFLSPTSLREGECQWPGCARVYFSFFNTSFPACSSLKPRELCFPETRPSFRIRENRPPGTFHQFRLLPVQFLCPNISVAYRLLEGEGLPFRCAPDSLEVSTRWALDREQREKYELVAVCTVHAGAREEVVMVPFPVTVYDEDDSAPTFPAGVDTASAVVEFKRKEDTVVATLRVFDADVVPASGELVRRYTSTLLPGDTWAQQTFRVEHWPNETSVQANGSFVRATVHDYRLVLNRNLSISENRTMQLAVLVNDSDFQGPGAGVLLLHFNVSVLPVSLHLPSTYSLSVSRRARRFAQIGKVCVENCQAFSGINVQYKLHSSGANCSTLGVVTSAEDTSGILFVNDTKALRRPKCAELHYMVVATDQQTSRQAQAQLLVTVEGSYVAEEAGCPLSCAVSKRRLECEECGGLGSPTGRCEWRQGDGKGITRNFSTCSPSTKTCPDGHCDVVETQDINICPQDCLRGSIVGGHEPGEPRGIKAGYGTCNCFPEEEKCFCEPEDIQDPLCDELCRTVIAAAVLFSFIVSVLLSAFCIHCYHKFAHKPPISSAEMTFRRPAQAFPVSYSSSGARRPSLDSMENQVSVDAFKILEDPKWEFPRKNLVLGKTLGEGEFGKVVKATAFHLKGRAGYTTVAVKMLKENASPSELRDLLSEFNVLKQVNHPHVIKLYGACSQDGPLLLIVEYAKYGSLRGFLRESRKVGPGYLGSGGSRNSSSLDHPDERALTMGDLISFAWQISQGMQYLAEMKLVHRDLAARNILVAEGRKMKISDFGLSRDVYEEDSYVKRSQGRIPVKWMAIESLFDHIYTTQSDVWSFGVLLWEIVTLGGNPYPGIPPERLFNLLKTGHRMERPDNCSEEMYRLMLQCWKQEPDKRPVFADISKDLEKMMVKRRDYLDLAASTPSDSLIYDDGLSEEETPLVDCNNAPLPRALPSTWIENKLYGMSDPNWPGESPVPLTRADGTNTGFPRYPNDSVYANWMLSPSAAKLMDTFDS

[14] = system: Kinesin-1 heavy chain/ Tyrosine-protein kinase receptor RET (Homo sapiens), P07949+P33176 [V804M]; assay: Inhibition of KIF5B-RET V804M mutant fusion protein (unknown origin) expressed in mouse BaF3 cells assessed as reduction in AKT phosphorylation at 500 nM measured after 4 hrs by Western blot analysis; format: cell-based
[15] = AUC (0 to infinity) in Sprague-Dawley rat at 10 mg/kg, po; format: ADME, organism-based; design: time infinity, route oral, dose 10 mg/kg; conditions: in vivo
[16] = biological target: Proto-oncogene tyrosine-protein kinase receptor Ret (Homo sapiens, UniProt P07949, M918T); assay: Inhibition of recombinant human N-terminal GST-HIS6 fused RET M918T mutant C-terminal domain (H658 to S1114 residues) expressed in Sf9 insect cells using TRK-C-derived peptide as substrate in presence of [33P]-ATP by filter binding assay
Proto-oncogene tyrosine-protein kinase receptor Ret (Homo sapiens, UniProt P07949, M918T), sequence (P07949 29-1114 M918T limits assumed): as the sequence (P07949 29-1114 limits assumed) above, with M890T counted along it

[17] = system: BaF3; assay: Inhibition of CCDC6-RET V804M mutant fusion protein (unknown origin) expressed in mouse BaF3 cells assessed as reduction in cell proliferation measured after 48 hrs by MTS assay; format: cell-based; conditions: Homo sapiens
[18] = system: BaF3; assay: Antitumor activity against KIF5B-RET fusion protein expressing mouse BaF3 cells implanted in BALB/c mouse assessed as tumor growth inhibition at 30 to 50 mg/kg, iv administered once daily for 7 days relative to control; format: functional; conditions: dose 30-50 mg/kg, time 7 day
[19] = biological target: T1, Coiled-coil domain-containing protein 6/Tyrosine-protein kinase receptor RET (Homo sapiens); assay: Inhibition of CCDC6-RET fusion protein in human LC-2-ad cells assessed as reduction in cell proliferation measured after 48 hrs by MTS assay; format: cell-based
[20] = system: BaF3; assay: Induction of apoptosis in KIF5B-RET fusion protein expressing mouse BaF3 cells implanted in BALB/c mouse assessed as increase in cleaved PARP level at 30 to 50 mg/kg, iv administered once daily for 7 days measured 4 hrs post last dose by Western blot analysis; format: functional, organism-based; conditions: dose 30-50 mg/kg, time 7.0 day
[21] = biological target: Proto-oncogene tyrosine-protein kinase receptor Ret (Homo sapiens, UniProt P07949, V804L); assay: Inhibition of recombinant human N-terminal GST-HIS6 fused RET V804L mutant C-terminal domain (H658 to S1114 residues) expressed in Sf9 insect cells using TRK-C-derived peptide as substrate in presence of [33P]-ATP by filter binding assay
Proto-oncogene tyrosine-protein kinase receptor Ret (Homo sapiens, UniProt P07949, V804L), sequence (P07949 29-1114 V804L limits assumed): as the sequence (P07949 29-1114 limits assumed) above, with V776L counted along it

[22] = Cmax in Sprague-Dawley rat at 1 mg/kg, iv; format: ADME, organism-based; design: route intravenous, dose 1 mg/kg; conditions: in vivo
[23] = biological target: T1, Coiled-coil domain-containing protein 6/Tyrosine-protein kinase receptor RET (Homo sapiens); assay: Inhibition of CCDC6-RET fusion protein (unknown origin) expressed in mouse BaF3 cells assessed as reduction in SHC phosphorylation at 10 to 500 nM measured after 4 hrs by Western blot analysis; format: cell-based; conditions: dose 10-500 nM
[24] = system: Mus musculus; assay: In vivo inhibition of KIF5B-RET fusion protein in BALB/c mouse implanted with KIF5B-RET fusion protein expressing mouse BaF3 cells assessed as reduction in RET phosphorylation at 30 to 50 mg/kg, iv administered daily for 7 days and measured 4 hrs post last dose by Western blot analysis; format: functional, organism-based; conditions: dose 30-50 mg/kg, time 7.0 day
[25] = biological target: Proto-oncogene tyrosine-protein kinase receptor Ret (Homo sapiens, UniProt P07949, V804M); assay: Inhibition of recombinant human N-terminal GST-HIS6 fused RET V804M mutant C-terminal domain (H658 to S1114 residues) expressed in Sf9 insect cells using TRK-C-derived peptide as substrate in presence of [33P]-ATP by filter binding assay
Proto-oncogene tyrosine-protein kinase receptor Ret (Homo sapiens, UniProt P07949, V804M), sequence (P07949 29-1114 V804M limits assumed): as the sequence (P07949 29-1114 limits assumed) above, with V776M counted along it

[26] = biological target: T2, Proto-oncogene tyrosine-protein kinase receptor Ret; assay: Binding affinity to wild-type human partial length RET (E713 to D1014 residues) expressed in bacterial expression system assessed as residual binding level at 1 uM by kinomescan method relative to control
[27] = Toxicity in BALB/c mouse implanted with KIF5B-RET fusion protein expressing mouse BaF3 cells assessed as body weight loss at 30 to 50 mg/kg, iv administered daily for 7 days measured daily during compound dosing; format: organism-based; conditions: in vivo, 168 h, dose 30-50 mg/kg, time 7 day
[28] = system: HepG2; assay: Antiproliferative activity against human HepG2 cells at 3.3 uM measured after 48 hrs by MTS assay; format: functional; conditions: read-out: GI
[29] = system: NCI-H3122; assay: Antiproliferative activity against human NCI-H3122 cells measured after 48 hrs by MTS assay; format: functional
[30] = biological target: Coiled-coil domain-containing protein 6/Tyrosine-protein kinase receptor RET (Homo sapiens, UniProt P07949); assay: Inhibition of human N-terminal GST-HIS6 fused CCDC6-RET fusion protein (Met1 to Ser503 residues) expressed in Sf9 insect cells using TRK-C-derived peptide as substrate in presence of [33P]-ATP by filter binding assay
Coiled-coil domain-containing protein 6/Tyrosine-protein kinase receptor RET, sequence (P07949 whole entry, the tested form may be a part): as the sequence (P07949 whole entry, the tested form may be a part) above
Coiled-coil domain-containing protein 6/Tyrosine-protein kinase receptor RET, sequence (Q16204 whole entry, further chain, the tested form may be a part): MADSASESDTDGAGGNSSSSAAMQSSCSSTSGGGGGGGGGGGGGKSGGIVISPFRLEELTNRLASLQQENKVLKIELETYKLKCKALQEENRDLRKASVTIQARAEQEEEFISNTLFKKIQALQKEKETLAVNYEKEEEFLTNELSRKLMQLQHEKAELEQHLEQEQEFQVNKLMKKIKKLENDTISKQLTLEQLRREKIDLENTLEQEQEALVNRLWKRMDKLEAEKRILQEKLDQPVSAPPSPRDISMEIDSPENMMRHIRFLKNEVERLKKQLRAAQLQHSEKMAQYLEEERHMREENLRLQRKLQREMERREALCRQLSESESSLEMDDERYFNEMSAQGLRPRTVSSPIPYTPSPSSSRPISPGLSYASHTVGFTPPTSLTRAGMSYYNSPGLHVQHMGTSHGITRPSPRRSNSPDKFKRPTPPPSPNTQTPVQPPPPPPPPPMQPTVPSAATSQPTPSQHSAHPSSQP

[31] = system: A-375; assay: Antiproliferative activity against human A-375 cells measured after 48 hrs by MTS assay; format: functional

## Cc1ccc(C(=O)Nc2ccc(CN3CCN(C)CC3)c(C(F)(F)F)c2)cc1Oc1nc(-c2cccnc2)nc2[nH]ncc12
[1]
  Activity: Active
[2]
  Activity: Active
[3]
  AUC(0-t): 6960 ng·h/mL
[4]
  inhibition: Active
[5]
  inhibition: Active
[6]
  inhibition: Active
[7]
  Activity: Dose-dependent effect
[8]
  GI50: 3390 nM
[9]
  inhibition: Dose-dependent effect
[10]
  Cmax: 194 ng/mL
[11]
  Tmax: 45 min
[12]
  AUC(0-t): 2110 ng·h/mL
[13]
  inhibition: Active
[14]
  inhibition: Active
[15]
  AUC(0-inf): 2340 ng·h/mL
[16]
  IC50: 8.42 nM
[17]
  GI50: 45 nM
[18]
  TGI: >60%
[19]
  GI50: 38 nM
[20]
  Activity: Active
[21]
  IC50: 15.1 nM
[22]
  Cmax: 6100 ng/mL
[23]
  inhibition: Active
[24]
  inhibition: Dose-dependent effect
[25]
  IC50: 7.86 nM
[26]
  Activity: 0.05%
[27]
  Activity: Non-Toxic
[28]
  inhibition of growth at 3.3 µM: 33%
[29]
  GI50: 5680 nM
[30]
  IC50: 5.43 nM
[31]
  GI50: 2950 nM

From ChEMBL document CHEMBL4706552, “Discovery of 4-methyl-N-(4-((4-methylpiperazin- 1-yl)methyl)-3-(trifluoromethyl)phenyl)-3-((6-(pyridin-3-yl)-1H-pyrazolo[3,4-d]pyrimidin-4-yl)-oxy)benzamide as a potent inhibitor of RET and its gatekeeper mutant” (Eur J Med Chem, 2020)
